Measurements taken from patent US20250255867A1 (Kadmon Corporation, LLC, priority 2022, published 2025).

Conditions: Cohort 1 200 mg QD
Procedure: All responses were assessed by the investigators.
Reported Adverse Events. […] All-cause mortality data collected during the study were assessed for all enrolled participants. Disease progression related death was not reported as AE.
Number of Participants With Treatment-emergent Adverse Events (TEAEs), and Treatment-emergent Serious Adverse Events (TESAEs). […] TEAEs included both SAEs and non-SAEs. […] Analysis was performed on safety population which included all participants who received at least 1 dose of study medication.

With `CC(C)NC(=O)COc1cccc(-c2nc(Nc3ccc4[nH]ncc4c3)c3ccccc3n2)c1` [Belumosudil, 2-{3-[4-(1H-indazol-5-ylamino)-2-quinazolinyl]phenoxy}-N-(propan-2-yl) acetamide] the “Diarrhoea: Affected/At Risk” value was 6/17, the “Diarrhoea: Affected/At Risk (%)” value was “(35.29%)” and the “Dizziness: # Events” value was 0. The “Dizziness: Affected/At Risk” value was 0/17, the “Dizziness: Affected/At Risk (%)” value was “(0%)” and the “Drug eruption: # Events” value was 0. For the same molecule, the “Drug eruption: Affected/At Risk” value was 0/17, the “Drug eruption: Affected/At Risk (%)” value was “(0%)” and the “Dry eye: # Events” value was 3. The “Dry eye: Affected/At Risk” value was 2/17, the “Dry eye: Affected/At Risk (%)” value was “(11.76%)” and the “Dry skin: # Events” value was 1. The “Dry skin: Affected/At Risk” value was 1/17, the “Dry skin: Affected/At Risk (%)” value was “(5.88%)” and the “Dyspepsia: # Events” value was 0. For the same molecule, the “Dyspepsia: Affected/At Risk” value was 0/17, the “Dyspepsia: Affected/At Risk (%)” value was “(0%)” and the “Dysphagia: # Events” value was 1. The “Dysphagia: Affected/At Risk” value was 1/17, the “Dysphagia: Affected/At Risk (%)” value was “(5.88%)” and the “Dyspnoea exertional: # Events” value was 1. For the same molecule, the “Dyspnoea exertional: Affected/At Risk” value was 1/17, the “Dyspnoea exertional: Affected/At Risk (%)” value was “(5.88%)” and the “Dyspnoea: # Events” value was 2. The “Dyspnoea: Affected/At Risk” value was 2/17, the “Dyspnoea: Affected/At Risk (%)” value was “(11.76%)” and the “Embolism: # Events” value was 1. For the same molecule, the “Embolism: Affected/At Risk” value was 1/17, the “Embolism: Affected/At Risk (%)” value was “(5.88%)” and the “Enamel anomaly: # Events” value was 0. For the same molecule, the “Enamel anomaly: Affected/At Risk” value was 0/17, the “Enamel anomaly: Affected/At Risk (%)” value was “(0%)” and the “Epidural lipomatosis: # Events” value was 1. The “Epidural lipomatosis: Affected/At Risk” value was 1/17, the “Epidural lipomatosis: Affected/At Risk (%)” value was “(5.88%)” and the “Epstein-Barr virus infection: # Events” value was 1. For the same molecule, the “Epstein-Barr virus infection: Affected/At Risk” value was 1/17, the “Epstein-Barr virus infection: Affected/At Risk (%)” value was “(5.88%)” and the “Erectile dysfunction: # Events” value was 4. The “Erectile dysfunction: Affected/At Risk” value was 2/17, the “Erectile dysfunction: Affected/At Risk (%)” value was “(11.76%)” and the “Eye irritation: # Events” value was 1. For the same molecule, the “Eye irritation: Affected/At Risk” value was 1/17, the “Eye irritation: Affected/At Risk (%)” value was “(5.88%)” and the “Eye pain: # Events” value was 0. For the same molecule, the “Eye pain: Affected/At Risk” value was 0/17, the “Eye pain: Affected/At Risk (%)” value was “(0%)” and the “Eye pruritus: # Events” value was 0. For the same molecule, the “Eye pruritus: Affected/At Risk” value was 0/17, the “Eye pruritus: Affected/At Risk (%)” value was “(0%)” and the “Fall: # Events” value was 2. For the same molecule, the “Fall: Affected/At Risk” value was 2/17, the “Fall: Affected/At Risk (%)” value was “(11.76%)” and the “Fatigue: # Events” value was 7. For the same molecule, the “Fatigue: Affected/At Risk” value was 6/17, the “Fatigue: Affected/At Risk (%)” value was “(35.29%)” and the “Flatulence: # Events” value was 0. For the same molecule, the “Flatulence: Affected/At Risk” value was 0/17, the “Flatulence: Affected/At Risk (%)” value was “(0%)” and the “Flushing: # Events” value was 0. The “Flushing: Affected/At Risk” value was 0/17, the “Flushing: Affected/At Risk (%)” value was “(0%)” and the “Fungal infection: # Events” value was 1. For the same molecule, the “Fungal infection: Affected/At Risk” value was 1/17, the “Fungal infection: Affected/At Risk (%)” value was “(5.88%)” and the “Gamma-glutamyltransferase increased: # Events” value was 9. For the same molecule, the “Gamma-glutamyltransferase increased: Affected/At Risk” value was 4/17, the “Gamma-glutamyltransferase increased: Affected/At Risk (%)” value was “(23.53%)” and the “Gastric ulcer: # Events” value was 0. The “Gastric ulcer: Affected/At Risk” value was 0/17, the “Gastric ulcer: Affected/At Risk (%)” value was “(0%)” and the “Gastrooesophageal reflux disease: # Events” value was 2. For the same molecule, the “Gastrooesophageal reflux disease: Affected/At Risk” value was 2/17, the “Gastrooesophageal reflux disease: Affected/At Risk (%)” value was “(11.76%)” and the “Generalised oedema: # Events” value was 1. The “Generalised oedema: Affected/At Risk” value was 1/17, the “Generalised oedema: Affected/At Risk (%)” value was “(5.88%)” and the “Genital infection fungal: # Events” value was 0. The “Genital infection fungal: Affected/At Risk” value was 0/17, the “Genital infection fungal: Affected/At Risk (%)” value was “(0%)” and the “Glaucoma: # Events” value was 0. The “Glaucoma: Affected/At Risk” value was 0/17, the “Glaucoma: Affected/At Risk (%)” value was “(0%)” and the “Glucose urine present: # Events” value was 3. The “Glucose urine present: Affected/At Risk” value was 2/17, the “Glucose urine present: Affected/At Risk (%)” value was “(11.76%)” and the “Graft versus host disease in gastrointestinal tract: # Events” value was 1. The “Graft versus host disease in gastrointestinal tract: Affected/At Risk” value was 1/17, the “Graft versus host disease in gastrointestinal tract: Affected/At Risk (%)” value was “(5.88%)” and the “Gynaecomastia: # Events” value was 0. The “Gynaecomastia: Affected/At Risk” value was 0/17, the “Gynaecomastia: Affected/At Risk (%)” value was “(0%)” and the “Haematuria: # Events” value was 1. The “Haematuria: Affected/At Risk” value was 1/17, the “Haematuria: Affected/At Risk (%)” value was “(5.88%)” and the “Hair growth abnormal: # Events” value was 1. For the same molecule, the “Hair growth abnormal: Affected/At Risk” value was 1/17, the “Hair growth abnormal: Affected/At Risk (%)” value was “(5.88%)” and the “Headache: # Events” value was 4. For the same molecule, the “Headache: Affected/At Risk” value was 4/17, the “Headache: Affected/At Risk (%)” value was “(23.53%)” and the “Hodgkin's disease recurrent: # Events” value was 1. For the same molecule, the “Hodgkin's disease recurrent: Affected/At Risk” value was 1/17, the “Hodgkin's disease recurrent: Affected/At Risk (%)” value was “(5.88%)” and the “Hordeolum: # Events” value was 1. The “Hordeolum: Affected/At Risk” value was 1/17, the “Hordeolum: Affected/At Risk (%)” value was “(5.88%)” and the “Hot flush: # Events” value was 1. For the same molecule, the “Hot flush: Affected/At Risk” value was 1/17, the “Hot flush: Affected/At Risk (%)” value was “(5.88%)” and the “Hyperglycemia: # Events” value was 2. For the same molecule, the “Hyperglycemia: Affected/At Risk” value was 2/17, the “Hyperglycemia: Affected/At Risk (%)” value was “(11.76%)” and the “Hyperhidrosis: # Events” value was 0. The “Hyperhidrosis: Affected/At Risk” value was 0/17, the “Hyperhidrosis: Affected/At Risk (%)” value was “(0%)” and the “Hyperkalaemia: # Events” value was 7. For the same molecule, the “Hyperkalaemia: Affected/At Risk” value was 3/17, the “Hyperkalaemia: Affected/At Risk (%)” value was “(17.65%)” and the “Hypertension: # Events” value was 8. The “Hypertension: Affected/At Risk” value was 5/17, the “Hypertension: Affected/At Risk (%)” value was “(29.41%)” and the “Hyperthyroidism: # Events” value was 0. For the same molecule, the “Hyperthyroidism: Affected/At Risk” value was 0/17, the “Hyperthyroidism: Affected/At Risk (%)” value was “(0%)” and the “Hypertriglyceridaemia: # Events” value was 0. The “Hypertriglyceridaemia: Affected/At Risk” value was 0/17, the “Hypertriglyceridaemia: Affected/At Risk (%)” value was “(0%)” and the “Hyperuricaemia: # Events” value was 6. The “Hyperuricaemia: Affected/At Risk” value was 1/17, the “Hyperuricaemia: Affected/At Risk (%)” value was “(5.88%)” and the “Hypoaesthesia: # Events” value was 2. The “Hypoaesthesia: Affected/At Risk” value was 1/17, the “Hypoaesthesia: Affected/At Risk (%)” value was “(5.88%)” and the “Hypocalcaemia: # Events” value was 0. For the same molecule, the “Hypocalcaemia: Affected/At Risk” value was 0/17 and the “Hypocalcaemia: Affected/At Risk (%)” value was “(0%)”.
